{
  "source": "patent US4496543A",
  "about": "“Polypeptides, processes for their production, pharmaceutical compositions comprising said polypeptides and their use” (Sandoz Ltd., priority 1982, dated 1985)",
  "tested_on": "serum GH-level",
  "test": "TEST I: depression of serum GH-levels in the rat (GH-secretion inhibiting activity)",
  "assay_type": "in vivo",
  "conditions": "male rats under Nembutal narcosis, s.c., activity at 60 minutes, serum GH by radio-immuno-assay",
  "protocol": "This test (TEST I) is carried out employing male rats under Nembutal narcosis. The test-substance is administered at varying, logarithmically staggered doses employing at least 4 rats per dose. The rats are decapitated 60 minutes after administration, the blood is collected and the serum GH-level determined by radio-immuno-assay.\nThe above test may be adapted to determine effectiveness over prolonged periods of time, e.g. by decapitating 6 or 18 hours after administration. \"Polypeptides of Type-T\" as hereinbefore defined may be shown to be active in the above described test method when administered at dosages in the aforesaid range, over longer periods of time, e.g. up to 18 hours.",
  "data": [
    {"smiles": "C[C@H](N)C(=O)NCC(=O)N[C@H]1CSSC[C@@H](C(=O)O)NC(=O)[C@H](CO)NC(=O)[C@H]([C@@H](C)O)NC(=O)[C@H](Cc2ccccc2)NC(=O)[C@H]([C@@H](C)O)NC(=O)[C@H](CCCCN)NC(=O)[C@H](Cc2c[nH]c3ccccc23)NC(=O)[C@H](Cc2ccccc2)NC(=O)[C@H](Cc2ccccc2)NC(=O)[C@H](CC(N)=O)NC(=O)[C@H](CCCCN)NC1=O", "note": "[somatostatin]", "values": [
      {"measurement": "ID50 in TEST I (amount of compound required to effect 50% reduction of the GH-level compared with untreated controls)", "value": 0.093, "unit": "mg/kg"}
    ]}
  ]
}
